Measured values reported in patent US10294202B2, “Pyrrolidinones as herbicides” (FMC Corporation, priority 2013, dated 2019).

Key:
[1] = test system: pigweed; assay: Test A pre-/postemergence herbicide test; assay type: in vivo, Amaranthus retroflexus; settings: for Pigweed plant response rating: Preemergence, visual rating on 0 to 100 scale (0 no effect, 100 complete control)
How it was run: (§1)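 Seeds sown in loam soil/sand blend received a preemergence directed soil spray of test chemical in non-phytotoxic solvent with surfactant; postemergence plants (2–10 cm, one- to two-leaf stage) were sprayed with the same formulation. After about 10 days in greenhouse, injury was rated visually versus untreated controls, 0 (no effect) to 100 (complete control).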

[2] = test system: wheat; assay: Test A pre-/postemergence herbicide test; assay type: in vivo, Triticum aestivum; settings: for Wheat plant response rating: Preemergence, visual rating on 0 to 100 scale (0 no effect, 100 complete control)
How it was run: as §1

[3] = test system: morningglory; assay: Test A pre-/postemergence herbicide test; assay type: in vivo, Ipomoea spp.; settings: for Morningglory plant response rating: Preemergence, visual rating on 0 to 100 scale (0 no effect, 100 complete control)
How it was run: as §1

[4] = test system: barnyardgrass; assay: Test A pre-/postemergence herbicide test; assay type: in vivo, Echinochloa crus-galli; settings: for Barnyardgrass plant response rating: Preemergence, visual rating on 0 to 100 scale (0 no effect, 100 complete control)
How it was run: as §1

[5] = test system: rice; assay: Test B flooded paddy test; assay type: in vivo, Oryza sativa; settings: 250 g ai/ha, Flood; scale of 0 to 100 where 0 is no effect and 100 is complete control
How it was run: (§2)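 Paddy-water application at a 3 cm flood, young plants having two leaves. Water level maintained; greenhouse, 13–15 days; visual 0–100 control rating.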

[6] = test system: ducksalad; assay: Test B flooded paddy test; assay type: in vivo, Heteranthera limosa; settings: 250 g ai/ha, Flood; scale of 0 to 100 where 0 is no effect and 100 is complete control
How it was run: as §2

[7] = test system: sedge, umbrella; assay: Test B flooded paddy test; assay type: in vivo, Cyperus difformis; settings: 250 g ai/ha, Flood; scale of 0 to 100 where 0 is no effect and 100 is complete control
How it was run: as §2

[8] = test system: crabgrass, large; assay: Test A pre-/postemergence herbicide test; assay type: in vivo, Digitaria sanguinalis; settings: for Crabgrass, Large plant response rating: Preemergence, visual rating on 0 to 100 scale (0 no effect, 100 complete control)
How it was run: as §1

[9] = test system: giant foxtail; assay: Test A pre-/postemergence herbicide test; assay type: in vivo, Setaria faberii; settings: for Foxtail, Giant plant response rating: Preemergence, visual rating on 0 to 100 scale (0 no effect, 100 complete control)
How it was run: as §1

[10] = test system: barnyardgrass; assay: Test B flooded paddy test; assay type: in vivo, Echinochloa crus-galli; settings: 250 g ai/ha, Flood; scale of 0 to 100 where 0 is no effect and 100 is complete control
How it was run: as §2

[11] = test system: corn; assay: Test A pre-/postemergence herbicide test; assay type: in vivo, Zea mays; settings: for Corn plant response rating: Preemergence, visual rating on 0 to 100 scale (0 no effect, 100 complete control)
How it was run: as §1

[12] = test system: velvetleaf; assay: Test A pre-/postemergence herbicide test; assay type: in vivo, Abutilon theophrasti; settings: for Velvetleaf plant response rating: Preemergence, visual rating on 0 to 100 scale (0 no effect, 100 complete control)
How it was run: as §1

[13] = Postemergence, 125 g ai/ha, 0 to 100 scale, 0 no effect, 100 complete control
[14] = Postemergence, 500 g ai/ha, 0 to 100 scale (0 no effect, 100 complete control)
[15] = preemergence, 500 g ai/ha, 0 to 100 scale
[16] = preemergence, 500 g ai/ha, 0 to 100 scale (0 no effect, 100 complete control)

For `COc1ncccc1NC(=O)C1C(=O)NCC1c1ccc(F)c(F)c1` (stereo not shown) [Compound 46], the “Plant response rating, Pigweed” value [1, 13] was 0, the “Plant response rating, Pigweed” value [1, 14] was 0 and the “Pigweed plant response rating” value ([1]; 125 g ai/ha) was 0. The “Plant response rating, Pigweed” value [1, 15] was 0, the “Plant response rating, Wheat” value [2, 13] was 0 and the “Plant response rating, Wheat” value [2, 14] was 0. For the same molecule, the “Wheat plant response rating” value ([2]; 125 g ai/ha) was 0, the “Plant response rating, Wheat” value [2, 15] was 0 and the “Plant response rating, Morningglory” value [3, 13] was 0. The “Plant response rating, Morningglory” value [3, 14] was 0, the “Morningglory plant response rating” value ([3]; 125 g ai/ha) was 0 and the “Plant response rating, Morningglory” value [3, 15] was 0. For the same molecule, the “Plant response rating, Barnyardgrass” value [4, 13] was 0, the “Plant response rating, Barnyardgrass” value [4, 14] was 0 and the “Barnyardgrass plant response rating” value ([4]; 125 g ai/ha) was 0. For the same molecule, the “Plant response rating, Barnyardgrass” value [4, 16] was 50, the “Plant response rating, Rice” value [5] was 0 and the “Plant response rating, Ducksalad” value [6] was 0. The “Plant response rating, Sedge, Umbrella” value [7] was 0, the “Plant response rating, Crabgrass, Large” value [8, 13] was 30 and the “Plant response rating, Crabgrass, Large” value [8, 14] was 60. The “Crabgrass, Large plant response rating” value ([8]; 125 g ai/ha) was 70, the “Plant response rating, Crabgrass, Large” value [8, 15] was 90 and the “Plant response rating, Foxtail, Giant” value [9, 13] was 0. For the same molecule, the “Plant response rating, Foxtail, Giant” value [9, 14] was 40, the “Foxtail, Giant plant response rating” value ([9]; 125 g ai/ha) was 40 and the “Plant response rating, Foxtail, Giant” value [9, 15] was 80. For the same molecule, the “Plant response rating, Barnyardgrass” value [10] was 0, the “Corn plant response rating” value ([11]; 125 g ai/ha) was 0 and the “Plant response rating, Corn” value [11, 15] was 0. The “Plant response rating, Velvetleaf” value [12, 13] was 0, the “Plant response rating, Velvetleaf” value [12, 14] was 0 and the “Velvetleaf plant response rating” value ([12]; 125 g ai/ha) was 0. For the same molecule, the “Plant response rating, Velvetleaf” value [12, 15] was 0.

For `O=C1NCC(c2ccc(F)c(F)c2)C1C(=O)Nc1ccccc1Br` (stereo not shown) [Compound 55], the “Plant response rating, Pigweed” value [1, 13] was 0, the “Plant response rating, Pigweed” value [1, 14] was 0 and the “Pigweed plant response rating” value ([1]; 125 g ai/ha) was 0. For the same molecule, the “Plant response rating, Pigweed” value [1, 15] was 0, the “Plant response rating, Wheat” value [2, 13] was 0 and the “Plant response rating, Wheat” value [2, 14] was 0. The “Wheat plant response rating” value ([2]; 125 g ai/ha) was 0, the “Plant response rating, Wheat” value [2, 15] was 0 and the “Plant response rating, Morningglory” value [3, 13] was 0. For the same molecule, the “Plant response rating, Morningglory” value [3, 14] was 0, the “Morningglory plant response rating” value ([3]; 125 g ai/ha) was 0 and the “Plant response rating, Morningglory” value [3, 15] was 0. For the same molecule, the “Plant response rating, Barnyardgrass” value [4, 13] was 30, the “Plant response rating, Barnyardgrass” value [4, 14] was 90 and the “Barnyardgrass plant response rating” value ([4]; 125 g ai/ha) was 20. For the same molecule, the “Plant response rating, Barnyardgrass” value [4, 16] was 80, the “Plant response rating, Rice” value [5] was 50 and the “Plant response rating, Ducksalad” value [6] was 75. The “Plant response rating, Sedge, Umbrella” value [7] was 70, the “Plant response rating, Crabgrass, Large” value [8, 13] was 80 and the “Plant response rating, Crabgrass, Large” value [8, 14] was 80. The “Crabgrass, Large plant response rating” value ([8]; 125 g ai/ha) was 80, the “Plant response rating, Crabgrass, Large” value [8, 15] was 90 and the “Plant response rating, Foxtail, Giant” value [9, 13] was 70. For the same molecule, the “Plant response rating, Foxtail, Giant” value [9, 14] was 80, the “Foxtail, Giant plant response rating” value ([9]; 125 g ai/ha) was 70 and the “Plant response rating, Foxtail, Giant” value [9, 15] was 90. The “Plant response rating, Barnyardgrass” value [10] was 50, the “Plant response rating, Corn” value [11, 13] was 0 and the “Plant response rating, Corn” value [11, 14] was 0. The “Corn plant response rating” value ([11]; 125 g ai/ha) was 0, the “Plant response rating, Corn” value [11, 15] was 0 and the “Plant response rating, Velvetleaf” value [12, 13] was 0. The “Plant response rating, Velvetleaf” value [12, 14] was 0, the “Velvetleaf plant response rating” value ([12]; 125 g ai/ha) was 0 and the “Plant response rating, Velvetleaf” value [12, 15] was 0.

For `O=C1NCC(c2ccc(F)c(F)c2)C1C(=O)Nc1cccc2c1OC(F)(F)O2` (stereo not shown) [Compound 57], the “Plant response rating, Pigweed” value [1, 13] was 0, the “Plant response rating, Pigweed” value [1, 14] was 0 and the “Pigweed plant response rating” value ([1]; 125 g ai/ha) was 0. The “Plant response rating, Pigweed” value [1, 15] was 0, the “Plant response rating, Wheat” value [2, 13] was 0 and the “Plant response rating, Wheat” value [2, 14] was 0. The “Wheat plant response rating” value ([2]; 125 g ai/ha) was 0, the “Plant response rating, Wheat” value [2, 15] was 0 and the “Plant response rating, Morningglory” value [3, 13] was 0. For the same molecule, the “Plant response rating, Morningglory” value [3, 14] was 0, the “Morningglory plant response rating” value ([3]; 125 g ai/ha) was 0 and the “Plant response rating, Morningglory” value [3, 15] was 0. For the same molecule, the “Plant response rating, Barnyardgrass” value [4, 13] was 70, the “Plant response rating, Barnyardgrass” value [4, 14] was 80 and the “Barnyardgrass plant response rating” value ([4]; 125 g ai/ha) was 40. The “Plant response rating, Barnyardgrass” value [4, 16] was 80, the “Plant response rating, Rice” value [5] was 0 and the “Plant response rating, Ducksalad” value [6] was 0. For the same molecule, the “Plant response rating, Sedge, Umbrella” value [7] was 0, the “Plant response rating, Crabgrass, Large” value [8, 13] was 50 and the “Plant response rating, Crabgrass, Large” value [8, 14] was 70. For the same molecule, the “Crabgrass, Large plant response rating” value ([8]; 125 g ai/ha) was 80, the “Plant response rating, Crabgrass, Large” value [8, 15] was 90 and the “Plant response rating, Foxtail, Giant” value [9, 13] was 50. For the same molecule, the “Plant response rating, Foxtail, Giant” value [9, 14] was 60, the “Foxtail, Giant plant response rating” value ([9]; 125 g ai/ha) was 60 and the “Plant response rating, Foxtail, Giant” value [9, 15] was 80. The “Plant response rating, Barnyardgrass” value [10] was 0, the “Plant response rating, Corn” value [11, 13] was 0 and the “Plant response rating, Corn” value [11, 14] was 0. For the same molecule, the “Corn plant response rating” value ([11]; 125 g ai/ha) was 0, the “Plant response rating, Corn” value [11, 15] was 0 and the “Plant response rating, Velvetleaf” value [12, 13] was 0. The “Plant response rating, Velvetleaf” value [12, 14] was 0, the “Velvetleaf plant response rating” value ([12]; 125 g ai/ha) was 0 and the “Plant response rating, Velvetleaf” value [12, 15] was 0.

In the case of `COc1cccc(NC(=O)C2C(=O)NCC2c2ccc(F)c(F)c2)n1` (stereo not shown) [Compound 58], the “Plant response rating, Pigweed” value [1, 13] is reported as 0, the “Plant response rating, Pigweed” value [1, 14] is reported as 0 and the “Pigweed plant response rating” value ([1]; 125 g ai/ha) is reported as 0. For the same molecule, the “Plant response rating, Pigweed” value [1, 15] was 0, the “Plant response rating, Wheat” value [2, 13] was 0 and the “Plant response rating, Wheat” value [2, 14] was 0. The “Wheat plant response rating” value ([2]; 125 g ai/ha) was 0, the “Plant response rating, Wheat” value [2, 15] was 0 and the “Plant response rating, Morningglory” value [3, 13] was 0. The “Plant response rating, Morningglory” value [3, 14] was 0, the “Morningglory plant response rating” value ([3]; 125 g ai/ha) was 0 and the “Plant response rating, Morningglory” value [3, 15] was 0. The “Plant response rating, Barnyardgrass” value [4, 13] was 0, the “Plant response rating, Barnyardgrass” value [4, 14] was 0 and the “Barnyardgrass plant response rating” value ([4]; 125 g ai/ha) was 0. The “Plant response rating, Barnyardgrass” value [4, 16] was 20, the “Plant response rating, Rice” value [5] was 0 and the “Plant response rating, Ducksalad” value [6] was 0. The “Plant response rating, Sedge, Umbrella” value [7] was 0, the “Plant response rating, Crabgrass, Large” value [8, 13] was 40 and the “Plant response rating, Crabgrass, Large” value [8, 14] was 80. The “Crabgrass, Large plant response rating” value ([8]; 125 g ai/ha) was 70, the “Plant response rating, Crabgrass, Large” value [8, 15] was 90 and the “Plant response rating, Foxtail, Giant” value [9, 13] was 20. For the same molecule, the “Plant response rating, Foxtail, Giant” value [9, 14] was 70, the “Foxtail, Giant plant response rating” value ([9]; 125 g ai/ha) was 20 and the “Plant response rating, Foxtail, Giant” value [9, 15] was 80. The “Plant response rating, Barnyardgrass” value [10] was 0, the “Plant response rating, Corn” value [11, 13] was 0 and the “Plant response rating, Corn” value [11, 14] was 0. The “Corn plant response rating” value ([11]; 125 g ai/ha) was 0, the “Plant response rating, Corn” value [11, 15] was 0 and the “Plant response rating, Velvetleaf” value [12, 13] was 0. The “Plant response rating, Velvetleaf” value [12, 14] was 0, the “Velvetleaf plant response rating” value ([12]; 125 g ai/ha) was 0 and the “Plant response rating, Velvetleaf” value [12, 15] was 0.
